Key:
smallflower flatsedge = test: Test B flood test smallflower flatsedge; assay type: in vivo, Cyperus difformis
In short: (§1)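 Plants were grown to the 2-leaf stage before treatment with test chemical, then held in a greenhouse for twelve to sixteen days. Injury was visually rated against untreated controls on a 0–10 scale, where 0 is no effect and 10 is complete control.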

pigweed = test: Test B pre/postemergence pigweed; assay type: in vivo, Amaranthus retroflexus
In short: (§2)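 Test chemicals in a non-phytotoxic solvent mixture with surfactant were sprayed preemergence onto planted seeds and postemergence onto plants 2 to 18 cm tall (1- to 4-leaf stage). After twelve to sixteen days in a greenhouse, injury was visually rated against untreated controls from 0 (no effect) to 10 (complete control).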

giant foxtail = test: Test B pre/postemergence giant foxtail; assay type: in vivo, Setaria faberii
In short: as §2

wild oat = test: Test B pre/postemergence wild oat; assay type: in vivo, Avena fatua
In short: as §2

bedstraw = test: Test B pre/postemergence bedstraw; assay type: in vivo, Galium aparine
In short: as §2

morningglory = test: Test B pre/postemergence morningglory; assay type: in vivo, Ipomoea hederacea; conditions: for Morningglory plant response rating: Postemergence; for Plant response rating, Morningglory: Preemergence
In short: as §2

crabgrass = test: Test B pre/postemergence crabgrass; assay type: in vivo, Digitaria sanguinalis
In short: as §2

sugar beet = test: Test B pre/postemergence sugar beet; assay type: in vivo, Beta vulgaris
In short: as §2

surinam grass = test: Test B pre/postemergence surinam grass; assay type: in vivo, Brachiaria decumbens
In short: as §2

blackgrass = test: Test B pre/postemergence blackgrass; assay type: in vivo, Alopecurus myosuroides
In short: as §2

corn = test: Test B pre/postemergence corn; assay type: in vivo, Zea mays; conditions: for Corn plant response rating: Postemergence; for Plant response rating, Corn: Preemergence
In short: as §2

rice = test: Test B flood test rice; assay type: in vivo, Oryza sativa
In short: as §1

rape = test: Test B pre/postemergence rape; assay type: in vivo, Brassica napus
In short: as §2

purple nutsedge = test: Test B pre/postemergence purple nutsedge; assay type: in vivo, Cyperus rotundus
In short: as §2

wheat = test: Test B pre/postemergence wheat; assay type: in vivo, Triticum aestivum
In short: as §2

bamyardgrass = test: Test B flood test barnyardgrass; assay type: in vivo, Echinochloa crus-galli
In short: as §1

[1] = Postemergence, Rate 62 g/ha, scale 0 to 10, 0 is no effect, 10 is complete control
[2] = Rate 125 g/ha, Postemergence section (flood test species), scale 0 to 10, 0 no effect, 10 complete control
[3] = Rate 500 g/ha, listed under Postemergence (flood test species), scale 0 to 10, 0 no effect, 10 complete control
[4] = flood test, listed under Postemergence, Rate 250 g/ha, scale 0 to 10, 0 no effect, 10 complete control
[5] = Postemergence, Rate 250 g/ha, scale 0 to 10, 0 no effect, 10 complete control
[6] = Preemergence, Rate 62 g/ha, scale 0 to 10, 0 is no effect, 10 is complete control
[7] = Preemergence, Rate 125 g/ha, scale 0 to 10 (0 no effect, 10 complete control)
[8] = Preemergence, Rate 250 g/ha, scale of 0 to 10 where 0 is no effect and 10 is complete control
[9] = Preemergence, Rate 500 g/ha, scale 0 (no effect) to 10 (complete control)
[10] = Rate 125 g/ha, Postemergence, scale 0 to 10, 0 no effect, 10 complete control
[11] = Rate 500 g/ha, Postemergence, scale 0 to 10, 0 no effect, 10 complete control
[12] = Rate 62 g/ha, scale 0 to 10, 0 is no effect, 10 is complete control
[13] = Rate 250 g/ha, scale 0 to 10, 0 no effect, 10 complete control
[14] = Rate 125 g/ha, scale 0 to 10 (0 no effect, 10 complete control)
[15] = Rate 250 g/ha, scale of 0 to 10 where 0 is no effect and 10 is complete control
[16] = Rate 125 g/ha, scale 0 to 10, 0 no effect, 10 complete control
[17] = Rate 500 g/ha, scale 0 to 10, 0 no effect, 10 complete control

Structure (SMILES): Cc1cccc(Cl)c1-n1c(=O)on(C(=O)N(c2ccc(Cl)cc2)C(C)C)c1=O [Compound 54]
- S. Flatsedge plant response rating (smallflower flatsedge; [1]): 0
- S. Flatsedge plant response rating (smallflower flatsedge; [2]): 0
- S. Flatsedge plant response rating (smallflower flatsedge; [3]): 0
- S. Flatsedge plant response rating (smallflower flatsedge; [4]): 0
- Redroot pigweed plant response rating (pigweed; [1]): 0
- Redroot pigweed plant response rating (pigweed; [5]): 2
- Plant response rating, Redroot pigweed (pigweed; [6]): 0
- Plant response rating, Redroot pigweed (pigweed; [7]): 0
- Plant response rating, Redroot pigweed (pigweed; [8]): 0
- Redroot pigweed plant response rating (pigweed; [9]): 0
- Redroot pigweed plant response rating (pigweed; [10]): 0
- Redroot pigweed plant response rating (pigweed; [11]): 4
- Giant foxtail plant response rating (giant foxtail; [1]): 3
- Giant foxtail plant response rating (giant foxtail; [5]): 3
- Plant response rating, Giant foxtail (giant foxtail; [6]): 2
- Plant response rating, Giant foxtail (giant foxtail; [7]): 3
- Plant response rating, Giant foxtail (giant foxtail; [8]): 3
- Giant foxtail plant response rating (giant foxtail; [9]): 7
- Giant foxtail plant response rating (giant foxtail; [10]): 3
- Giant foxtail plant response rating (giant foxtail; [11]): 5
- Wild oats plant response rating (wild oat; [1]): 0
- Wild oats plant response rating (wild oat; [5]): 0
- Plant response rating, Wild oats (wild oat; [7]): 0
- Plant response rating, Wild oats (wild oat; [8]): 0
- Wild oats plant response rating (wild oat; [9]): 0
- Wild oats plant response rating (wild oat; [10]): 0
- Wild oats plant response rating (wild oat; [11]): 0
- Bedstraw plant response rating (bedstraw; [1]): 0
- Bedstraw plant response rating (bedstraw; [5]): 4
- Plant response rating, Bedstraw (bedstraw; [6]): 0
- Plant response rating, Bedstraw (bedstraw; [7]): 0
- Plant response rating, Bedstraw (bedstraw; [8]): 0
- Bedstraw plant response rating (bedstraw; [9]): — — 0 0 0
- Bedstraw plant response rating (bedstraw; [10]): 0
- Bedstraw plant response rating (bedstraw; [11]): 7
- Morningglory plant response rating (morningglory; [12]): 0
- Morningglory plant response rating (morningglory; [13]): 2
- Plant response rating, Morningglory (morningglory; [12]): 0
- Plant response rating, Morningglory (morningglory; [14]): 0
- Plant response rating, Morningglory (morningglory; [15]): 0
- Morningglory plant response rating (morningglory; [16]): 0
- Morningglory plant response rating (morningglory; [17]): 2
- Crabgrass plant response rating (crabgrass; [1]): 0
- Crabgrass plant response rating (crabgrass; [5]): 2
- Plant response rating, Crabgrass (crabgrass; [6]): 2
- Plant response rating, Crabgrass (crabgrass; [7]): 2
- Plant response rating, Crabgrass (crabgrass; [8]): 3
- Crabgrass plant response rating (crabgrass; [9]): 8
- Crabgrass plant response rating (crabgrass; [10]): 0
- Crabgrass plant response rating (crabgrass; [11]): 5
- Sugarbeets plant response rating (sugar beet; [1]): 0
- Sugarbeets plant response rating (sugar beet; [5]): 0
- Plant response rating, Sugarbeets (sugar beet; [6]): 0
- Plant response rating, Sugarbeets (sugar beet; [7]): 0
- Plant response rating, Sugarbeets (sugar beet; [8]): 0
- Sugarbeets plant response rating (sugar beet; [9]): 0
- Sugarbeets plant response rating (sugar beet; [10]): 0
- Sugarbeets plant response rating (sugar beet; [11]): 0
- B. signalgrass plant response rating (surinam grass; [1]): 0
- B. signalgrass plant response rating (surinam grass; [5]): 0
- Plant response rating, B. signalgrass (surinam grass; [6]): 0
- Plant response rating, B. signalgrass (surinam grass; [7]): 0
- Plant response rating, B. signalgrass (surinam grass; [8]): 0
- B. signalgrass plant response rating (surinam grass; [9]): 2
- B. signalgrass plant response rating (surinam grass; [10]): 0
- B. signalgrass plant response rating (surinam grass; Rate 500 g/ha, Postemergence, scale of 0 to 10 where 0 is no effect and 10 is complete control): 0
- Blackgrass plant response rating (blackgrass; [1]): 0
- Blackgrass plant response rating (blackgrass; [5]): 0
- Plant response rating, Blackgrass (blackgrass; [6]): 0
- Plant response rating, Blackgrass (blackgrass; [7]): 0
- Plant response rating, Blackgrass (blackgrass; [8]): 0
- Blackgrass plant response rating (blackgrass; [9]): 2
- Blackgrass plant response rating (blackgrass; [10]): 0
- Blackgrass plant response rating (blackgrass; [11]): 2
- Corn plant response rating (corn; [12]): 0
- Corn plant response rating (corn; [13]): 0
- Plant response rating, Corn (corn; [12]): 0
- Plant response rating, Corn (corn; [14]): 0
- Plant response rating, Corn (corn; [15]): 0
- Corn plant response rating (corn; [16]): 0
- Corn plant response rating (corn; [17]): 0
- Rice plant response rating (rice; [1]): 0
- Rice plant response rating (rice; [2]): 0
- Rice plant response rating (rice; [3]): 0
- Rice plant response rating (rice; [4]): 0
- Rape plant response rating (rape; [1]): 0
- Rape plant response rating (rape; [5]): 0
- Plant response rating, Rape (rape; [6]): 0
- Plant response rating, Rape (rape; [7]): 0
- Plant response rating, Rape (rape; [8]): 0
- Rape plant response rating (rape; [9]): 0
- Rape plant response rating (rape; [10]): 0
- Rape plant response rating (rape; [11]): 0
- Nutsedge plant response rating (purple nutsedge; [1]): 0
- Nutsedge plant response rating (purple nutsedge; [5]): 0
- Plant response rating, Nutsedge (purple nutsedge; [6]): 0
- Plant response rating, Nutsedge (purple nutsedge; [7]): 0
- Plant response rating, Nutsedge (purple nutsedge; [8]): 0
- Nutsedge plant response rating (purple nutsedge; [9]): 0
- Nutsedge plant response rating (purple nutsedge; [10]): 0
- Nutsedge plant response rating (purple nutsedge; [11]): 0
- Wheat plant response rating (wheat; [1]): 0
- Wheat plant response rating (wheat; [5]): 0
- Plant response rating, Wheat (wheat; [6]): 0
- Plant response rating, Wheat (wheat; [7]): 0
- Plant response rating, Wheat (wheat; [8]): 0
- Wheat plant response rating (wheat; [9]): 0
- Wheat plant response rating (wheat; [10]): 0
- Wheat plant response rating (wheat; [11]): 0
- Barnyardgrass plant response rating (bamyardgrass; [1]): 0
- Barnyardgrass plant response rating (bamyardgrass; [2]): 0
- Barnyardgrass plant response rating (bamyardgrass; [3]): 0
- Barnyardgrass plant response rating (bamyardgrass; [4]): 0

From patent publication US6737383B1, “Herbicidal oxadiazolidines” (priority 1999, dated 2004)
